System: Phosphorylation of STAT6 in human A549 cells
Assay: Phosphorylated STAT6 (pSTAT6) flow cytometry assay in human A549 cells
Format: cell-based
Conditions: read-out: STAT6 IL4 pSTAT6 assay in A549 cells: Average IC50
Text: Example 3. Phosphorylated STAT6 (pSTAT6) Flow Cytometry Assay in Human A549 Cells
Phosphorylation of STAT6 in human A549 cells was quantitatively measured using flow cytometry technology.

SMILES | IC50
COc1cc(F)cnc1N1CCN(C(=O)c2cc3c(-c4cncc(OC(C)C)c4)cc(C4=CCCN(C(=O)CCn5ccnn5)C4)c(F)c3[nH]2)CC1 [Example I-655] | < 100 nM
COc1cc(F)cnc1N1CCN(C(=O)c2cc3c(-c4ccnc(F)c4OC)cc(C4=CCCN(C(=O)CCn5ccnn5)C4)c(F)c3[nH]2)CC1 [Example I-656] | < 100 nM
COc1cc(F)cnc1N1CCN(C(=O)c2cc3c(C4=CCN(C(C)=O)CC4)cc(C4=CCCN(C(=O)CCn5ccnn5)C4)c(F)c3[nH]2)CC1 [Example I-657] | < 100 nM
COc1cc(F)cnc1N1CCN(C(=O)c2cc3c(-c4cccc5c4CC[C@H]5O)cc(C4=CCCN(C(=O)CCn5ccnn5)C4)c(F)c3[nH]2)CC1 [Example I-658] | < 100 nM
COc1cc(F)cnc1N1CCN(C(=O)c2cc3c(-c4cc(O)cc5ccccc45)cc(C4=CCCN(C(=O)CCn5ccnn5)C4)c(F)c3[nH]2)CC1 [Example I-659] | < 100 nM
COCOc1ccc(F)cc1-c1cc(C2=CCCN(C(=O)CCn3ccnn3)C2)c(F)c2[nH]c(C(=O)N3CCN(c4ncc(F)cc4OC)CC3)cc12 [Example I-660] | < 100 nM
CCOc1ccc(-c2cc(C3=CCCN(C(=O)CCn4ccnn4)C3)c(F)c3[nH]c(C(=O)N4CCN(c5ncc(F)cc5OC)CC4)cc23)c(OC)c1 [Example I-661] | < 100 nM
CCc1ccccc1-c1cc(C2=CCCN(C(=O)CCn3cccn3)C2)c(F)c2[nH]c(C(=O)N3CCN(c4ncc(F)cc4OC)CC3)cc12 [Example I-662] | < 100 nM
COc1cnccc1-c1cc(C2=CCCN(C(=O)CCn3cccn3)C2)c(F)c2[nH]c(C(=O)N3CCN(c4ncc(F)cc4OC)CC3)cc12 [Example I-663] | < 100 nM
COc1ccncc1-c1cc(C2=CCCN(C(=O)CCn3cccn3)C2)c(F)c2[nH]c(C(=O)N3CCN(c4ncc(F)cc4OC)CC3)cc12 [Example I-664] | < 100 nM
CCc1ccccc1-c1cc(C2=CCCN(C(=O)CCn3ccnn3)C2)c(F)c2[nH]c(C(=O)N3CCN(c4ncc(F)cc4OC)CC3)cc12 [Example I-665] | < 100 nM
COc1cnccc1-c1cc(C2=CCCN(C(=O)CCn3ccnn3)C2)c(F)c2[nH]c(C(=O)N3CCN(c4ncc(F)cc4OC)CC3)cc12 [Example I-666] | > 100000 nM
COc1cc(C)ncc1-c1cc(C2=CCCN(C(=O)CCn3ccnn3)C2)c(F)c2[nH]c(C(=O)N3CCN(c4ncc(F)cc4OC)CC3)cc12 [Example I-667] | > 100000 nM
COc1cc(F)cnc1N1CCN(C(=O)c2cc3c(-c4cnccc4C(C)C)cc(C4=CCCN(C(=O)CCn5ccnn5)C4)c(F)c3[nH]2)CC1 [Example I-668] | > 100000 nM
COc1cc(F)cnc1N1CCN(C(=O)c2cc3c(-c4cnccc4C(C)C)cc(C4=CCCN(C(=O)CCn5cccn5)C4)c(F)c3[nH]2)CC1 [Example I-669] | < 100 nM
COCOc1cc(F)ccc1-c1cc(C2=CCCN(C(=O)CCn3ccnn3)C2)c(F)c2[nH]c(C(=O)N3CCN(c4ncc(F)cc4OC)CC3)cc12 [Example I-670] | < 100 nM
COc1cc(F)cnc1N1CCN(C(=O)c2cc3c(-c4cnn(-c5ccccc5)c4)cc(C4=CCCN(C(=O)CCn5ccnn5)C4)c(F)c3[nH]2)CC1 [Example I-671] | 100 to 1000 nM
COc1cc(F)cnc1N1CCN(C(=O)c2cc3c(-c4cnc5c(C)cccc5c4)cc(C4=CCCN(C(=O)CCn5ccnn5)C4)c(F)c3[nH]2)CC1 [Example I-672] | < 100 nM
COc1cc(F)cnc1N1CCN(C(=O)c2cc3c(-c4cccc(C)c4)cc(C4=CCCN(C(=O)CCn5ccnn5)C4)c(F)c3[nH]2)CC1 [Example I-673] | < 100 nM
COc1cc(F)cnc1N1CCN(C(=O)c2cc3c(-c4cccc(C5CC5)c4)cc(C4=CCCN(C(=O)CCn5ccnn5)C4)c(F)c3[nH]2)CC1 [Example I-674] | 100 to 1000 nM

SMILES | IC50
C=C(C)c1cc(C2=CCCN(C(=O)CCn3ccnn3)C2)c(F)c2[nH]c(C(=O)N3CCN(c4ncc(F)cc4OC)CC3)cc12 [Example I-675] | < 100 nM
COc1cc(F)cnc1N1CCN(C(=O)c2cc3c(-c4ccc(F)c(C)c4)cc(C4=CCCN(C(=O)CCn5ccnn5)C4)c(F)c3[nH]2)CC1 [Example I-676] | 100 to 1000 nM
CCC/C=C/c1cc(C2=CCCN(C(=O)CCn3ccnn3)C2)c(F)c2[nH]c(C(=O)N3CCN(c4ncc(F)cc4OC)CC3)cc12 [Example I-677] | < 100 nM
COc1cc(F)cnc1N1CCN(C(=O)c2cc3c(-c4cccc5c4OCCCO5)cc(C4=CCCN(C(=O)CCn5ccnn5)C4)c(F)c3[nH]2)CC1 [Example I-678] | < 100 nM
CCSc1ccccc1-c1cc(C2=CCCN(C(=O)CCn3ccnn3)C2)c(F)c2[nH]c(C(=O)N3CCN(c4ncc(F)cc4OC)CC3)cc12 [Example I-679] | < 100 nM
COc1cc(F)cnc1N1CCN(C(=O)c2cc3c(-c4ccnc(N5CCOCC5)c4)cc(C4=CCCN(C(=O)CCn5ccnn5)C4)c(F)c3[nH]2)CC1 [Example I-680] | < 100 nM
COc1cc(F)cnc1N1CCN(C(=O)c2cc3c(-c4cccc(C(C)(C)C#N)c4)cc(C4=CCCN(C(=O)CCn5ccnn5)C4)c(F)c3[nH]2)CC1 [Example I-682] | < 100 nM
CCc1ccncc1-c1cc(C2=CCCN(C(=O)CCn3cccn3)C2)c(F)c2[nH]c(C(=O)N3CCN(c4ncc(OC)cc4OC)CC3)cc12 [Example I-683] | < 100 nM
CCc1cnccc1-c1cc(C2=CCCN(C(=O)CCn3cccn3)C2)c(F)c2[nH]c(C(=O)N3CCN(c4ncc(OC)cc4OC)CC3)cc12 [Example I-684] | < 100 nM
COc1cc(F)cnc1N1CCN(C(=O)c2cc3c(-c4ccncc4C(C)C)cc(C4=CCCN(C(=O)CCn5cccn5)C4)c(F)c3[nH]2)CC1 [Example I-685] | < 100 nM
CCc1ccncc1-c1cc(C2=CCCN(C(=O)CCn3cccn3)C2)c(F)c2[nH]c(C(=O)N3CCN(c4ncc(F)cc4OC)CC3)cc12 [Example I-686] | < 100 nM
COc1ccccc1-c1cc(C2=CCCN(C(=O)CCn3cccn3)C2)c(F)c2[nH]c(C(=O)N3CCN(c4ncc(F)cc4OC)CC3)cc12 [Example I-687] | < 100 nM
CCc1cnccc1-c1cc(C2=CCCN(C(=O)CCn3cccn3)C2)c(F)c2[nH]c(C(=O)N3CCN(c4ncc(F)cc4OC)CC3)cc12 [Example I-688] | < 100 nM
CCc1cnccc1-c1cc(C2=CCCN(C(=O)CCn3ccnn3)C2)c(F)c2[nH]c(C(=O)N3CCN(c4ncc(F)cc4OC)CC3)cc12 [Example I-689] | < 100 nM
COc1cccnc1N1CCN(C(=O)c2cc3c(-c4cccc5c4OC(F)(F)O5)cc(C4=CCCN(C(=O)CCn5ccnn5)C4)c(F)c3[nH]2)CC1 [Example I-690] | < 100 nM
COc1cc2c(-c3cc(C4=CCCN(C(=O)CCn5ccnn5)C4)c(F)c4[nH]c(C(=O)N5CCN(c6ncc(F)cc6OC)CC5)cc34)ccnc2cc1F [Example I-691] | < 100 nM
CCc1nccn1-c1cc(C2=CCCN(C(=O)CCn3ccnn3)C2)c(F)c2[nH]c(C(=O)N3CCN(c4ncccc4OC)CC3)cc12 [Example I-692] | > 100000 nM
CCCc1cc(C2=CCCN(C(=O)CCn3ccnn3)C2)c(F)c2[nH]c(C(=O)N3CCN(c4ncc(F)cc4OC)CC3)cc12 [Example I-693] | > 100000 nM
COc1cc(F)cnc1N1CCN(C(=O)c2cc3c(C4CC4)cc(C4=CCCN(C(=O)CCn5ccnn5)C4)c(F)c3[nH]2)CC1 [Example I-694] | > 100000 nM
CCCCCCc1cc(C2=CCCN(C(=O)CCn3ccnn3)C2)c(F)c2[nH]c(C(=O)N3CCN(c4ncc(F)cc4OC)CC3)cc12 [Example I-695] | > 100000 nM
